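Cells were grown in 96-well plates and exposed to each compound for 48 hours at five concentrations; endpoints were interpolated linearly between bracketing concentrations, or set to the highest concentration if not reached. GI50 is the concentration that inhibits growth by half. At the TGI there is no net growth.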 Where a SMILES comes first, the peptide text is derived from it. Bridges are numbered along the chain shown (N, C = ends). Roman numbers before positions name the chains, in order. [ ]: non-standard residue; d: D form. The star is where a group is joined. Quinoxaline2carbonyl = O=C(c1cnc2ccccc2n1)*; NMeV = CN[CH](C(=O)O)C(C)C; NMeC = CN[CH](CS)C(=O)O
What was measured:
Assay in all cases: NCI anticancer screen, dose series, 48 h
A498 renal = test system: A498 renal
HS 578T breast = test system: HS 578T breast
KM12 colon = test system: KM12 colon
NCI-H226 lung = test system: NCI-H226 lung
NCI/ADR-RES ovarian = test system: NCI/ADR-RES ovarian
OVCAR-3 ovarian = test system: OVCAR-3 ovarian
TK-10 renal = test system: TK-10 renal

| SMILES | GI50 (A498 renal) [µM] | TGI (A498 renal) [µM] | GI50 (HS 578T breast) [µM] | TGI (HS 578T breast) [µM] | GI50 (KM12 colon) [µM] | TGI (KM12 colon) [µM] | GI50 (NCI-H226 lung) [µM] | TGI (NCI-H226 lung) [µM] | GI50 (NCI/ADR-RES ovarian) [µM] | TGI (NCI/ADR-RES ovarian) [µM] | GI50 (OVCAR-3 ovarian) [µM] | TGI (OVCAR-3 ovarian) [µM] | GI50 (TK-10 renal) [µM] | TGI (TK-10 renal) [µM] |
| --- | --- | --- | --- | --- | --- | --- | --- | --- | --- | --- | --- | --- | --- | --- |
| CCN(Cc1ccc(Cl)s1)c1ccc(CO)c(Cl)c1 | 0.0495 | 0.189 | 11.7 | > 60.4 | 14.7 | 31.6 | 0.0915 | 0.232 | 10.4 | 47.1 | 0.295 | 1.21 | 0.0452 | 0.221 |
| C[CH2][Pb]([CH2]C)([CH2]C)[O]C(=O)c1ccc2ccccc2n1 | > 10 | > 10 | > 10 | > 10 | > 10 | > 10 | > 10 | > 10 | > 10 | > 10 | > 10 | > 10 |  |  |
| O=c1[nH]cnc2c(C3NC(CO)C(O)C3O)c[nH]c12 (stereo unspecified) | > 100 | > 100 | > 100 | > 100 | > 100 | > 100 | > 100 | > 100 | > 100 | > 100 | > 100 | > 100 | > 100 | > 100 |
| O=C1NC(=O)C(c2cccc(Cl)c2)=C1Nc1ccc(O)c(Cl)c1 | 11.1 | > 25 | 5.11 | 19.3 | 10.5 | > 25 | 12 | > 25 | 10.4 | > 25 | 7.86 | > 21.9 | 8.66 | > 25 |
| COc1cc(/C=C/[N+](=O)[O-])cc(Br)c1OC | 2.03 | 8.53 | 2.9 | 15.9 | 3 | 10.1 | 16.7 | 52.8 | 3.62 | 19.5 | 3.23 | 10.2 | 3.52 | 11.5 |
| CN(CCCCCl)P(=O)(OCCS(=O)(=O)CC(NC(=O)CCC(N)C(=O)O)C(=O)NC(C(=O)O)c1ccccc1)OCC1OC(n2cc(F)c(=O)[nH]c2=O)CC1O (stereo unspecified) |  | > 100 | 5.89 | 97.6 | 13.3 | > 78 | 0.628 | > 100 | 0.323 | > 65.1 | 1.22 | > 84.4 | 0.944 | > 21.4 |
| CC1(C)N=C(N)N=C(N)N1c1ccc(CCCCc2ccc(S(=O)(=O)F)cc2)c(Cl)c1 | 0.981 | 18 | 9.27 | 32.1 | 0.454 | 15.2 | 0.626 | 25.9 | 45 | > 100 | 0.851 | 17.4 | 0.848 | 20.3 |
| CC1NC(=O)C(NC(=O)c2cnc3ccccc3n2)COC(=O)C(C(C)C)N(C)C(=O)C2CSSCC(C(=O)N(C)C(C(C)C)C(=O)OCC(NC(=O)c3cnc4ccccc4n3)C(=O)NC(C)C(=O)N2C)N(C)C1=O (stereo unspecified) (I: Quinoxaline2carbonyl-SA[NMeC][NMeV] / II: Quinoxaline2carbonyl-SA[NMeC][NMeV]; ester I:1-II:C, I:C-II:1; disulfide I:3-II:3; configuration not given here) |  | < 0.01 |  | < 0.01 |  | 3.17 |  | 0.0237 |  | 0.662 |  | > 100 |  | > 5.39 |
| Nc1ccc(-c2nc3ccccc3[nH]2)c2ccccc12 | 1.07 | 15 | 3.5 | > 30 | 1.92 | 16.1 | 8.44 | 37.9 | 2.08 | 7.37 | 2.5 | > 41.4 | 7.24 | > 100 |
| COc1ccc2c(c1)OC1=C(C(=O)OC1)C2c1cc(OC)c2c(c1)OCO2 (stereo unspecified) | 0.0205 | 0.0923 | 0.0348 | > 100 | 0.0304 | 0.416 | 0.0489 |  |  |  | 0.0214 | 0.0458 | 0.268 | > 100 |
| O=C(Oc1cccnc1)c1ccsc1Nc1ccnc(C(F)(F)F)c1 | 31.1 | 76.2 |  |  | 3.38 | 10.3 | 22.3 | > 100 | 4.62 | > 100 | 8.76 | > 100 | 4.91 | 93.7 |
| COc1ccc(-c2cc(=O)c3c(OC)c(OC)c(OC)c(OC)c3o2)cc1 |  | 83.9 |  | > 100 |  |  |  | > 100 |  | > 100 |  | > 100 |  | > 100 |
| CCOc1nc(N)nc(C)c1N=Nc1ccc(Cl)cc1 |  |  |  | 38.4 |  | > 100 |  | > 100 |  | > 100 |  | > 100 |  | > 100 |
| CCC1(O)C(=O)OCc2c1cc1n(c2=O)Cc2cc3cc(N)ccc3nc2-1 (stereo unspecified) |  | 1.06 |  | > 95.2 |  |  |  |  |  | 0.266 |  | 0.469 |  | > 28.2 |

From PubChem BioAssay (NCI)
